In assay [1] the test system is Xchk1. The assay can be described thus: Phosphorylation of Xchk1 in Xenopus egg extracts. The format is biochemical.
Method: To address this question, we first measured phosphorylation of Xchk1 in egg extracts undergoing a checkpoint delay in response to a block to DNA replication. […] Briefly, ^35S-labeled wildtype or mutant Xchk1 (T314A, S344A, T314A+S344A, S356A, S365A, S356A+S365A, 4AQ) protein was incubated with egg extracts in the presence or absence of aphidicolin. ^35S labeled proteins were isolated and analyzed by gel electrophoresis for a phosphorylation-dependent shift in mobility.
Using the S344-p antibodies, we examined in more detail the phosphorylation of Xchk1 expressed in egg extracts. […] Following the incubation, the recombinant proteins were reisolated with glutathione agarose and detected by immunoblot with anti-GST antibodies and anti-S344-p antibodies.
Following 90 minute incubation, the preparation was diluted in 400 μL of dilution buffer (10 mM HEPES at pH 7.5, 150 mM NaCl, 20 mM β-glycerolphosphate, 2.5 mM EGTA, and 0.1% CHAPS). Recombinant Xchk1 proteins were isolated with glutathione agarose, washed, eluted, subjected to SDS-PAGE, and immunoblotted with either anti-GST antibodies (Santa Cruz Biotechnology) or anti-S344-p antibodies.
Assay [2] addresses T1, Xatr (Xenopus laevis, UniProt Q9DE14). As to the kind of experiment: Binding of Xatr to single-stranded and double-stranded DNA cellulose in egg cytosol. Further details: we examined the association of Xatr with both single and double-stranded DNA in Xenopus egg extracts; from tissue; host or cells: Xenopus interphase egg cytosol. The settings on record: 50 μL cytosol, with or without APH. The procedure: In order to functionally characterize Xatr, we examined the association of Xatr with both single and double-stranded DNA in Xenopus egg extracts, under a variety of conditions. […] Briefly, control cellulose, single-stranded DNA cellulose, or double-stranded DNA cellulose were incubated with 50 μL of cytosol in the presence or absence of APH or PCL. Washed cellulose beads were boiled in gel loading buffer, and half of this was subjected to immunoblot analysis using an Xatr polyclonal antibody prepared in Example 1.
Preparation of DNA cellulose: M13 DNA (single-stranded DNA) was prepared according to the manufacturers instructions (Amersham). pBS plasmids (pBluescript—double stranded DNA) were prepared by a standard alkaline lysis procedure. 1 mg of M13 DNA or pBluescript DNA in 1 mL of TE buffer (10 mM Tris-HCL, 1 mM EDTA at pH 8.0) was incubated with 0.3 grams of cellulose for 5 minutes at 23° C. Following incubation, the preparation was lyophilized for 18 hours. The resulting lyophilized powder was resuspended in 20 volumes of TE, incubated at 4° C. for 24 hours, washed with TE, and frozen at −70° C. until use. Naked control cellulose was prepared under the same conditions, however, the addition of either single or double stranded DNA was omitted.
Binding of Xatr to DNA cellulose: 25–100 μL of DNA cellose was incubated with 50–500 μL of interphase egg cytosol for 40 minutes at 23° C. […]

Assay [3] deals with ATR (Homo sapiens, UniProt Q13535). The settings on record: cited from earlier work.
Assay [4] deals with T1, Xatr. The assay can be described thus: Xatr kinase assay: phosphorylation of model substrate PHAS-I by anti-Xatr immunoprecipitates. Format: biochemical. Further details: Xatr was immunoprecipitated from Xenopus egg extracts using an anti-Xatr antibody; from tissue; host or cells: Xenopus egg extracts (immunoprecipitate with anti-peptide 1617-1630 antibody). The settings on record: 0.04, 0.2, 1 or 5 mM caffeine; anti-Xatr immunoprecipitates from egg extracts; autoradiography. The procedure: Given the conservation of the PIK-related kinase domain among ATR homologs, we characterized the kinase activity of Xatr. Xatr was immunoprecipitated from Xenopus egg extracts using an anti-Xatr antibody (as described in Example 1).
To further assess the relationship between Xatr and other PIK-related kinases, we next assessed the effects of caffeine on the kinase activity of Xatr. […] Briefly, kinase assays were performed by incubating anti-Xatr immunoprecipitates (lanes 1–5) or control immunoprecipitates (lanes 6–10) with the model substrate PHAS-I, in the presence of 0 (lanes 1 and 6), 0.04 mM (lanes 5 and 10), 0.2 mM (lanes 4 and 9), 1 mM (lanes 3 and 8) or 5 mM (lanes 2 and 7) caffeine. Proteins were subjected to SDS-PAGE and visualized by silver staining (bottom panel). Phosphorylation of PHAS-I was detected by autoradiography (middle panel).
METHODS: Polyclonal antibodies generated against an Xatr peptide ([…], SEQ ID NO: 11), as shown in Example 1, were used to immunoprecipitate Xatr. Immunoprecipitation and kinase assays were performed using standard methods, and as previously shown (Guo and Dunphy (2000) Mol. Biol Cell 11: 1535–1546).

Assay [5] deals with ATM (Homo sapiens, UniProt Q13315). The settings on record: cited from earlier work.
For assay [6], the target named is TOR (Homo sapiens, UniProt P42345). The settings on record: cited from earlier work.

“Also recorded” adds a separate entry of the source.

T1 sequence (Q9DE14 whole entry Y191C/P249S/H2082P/D2362G): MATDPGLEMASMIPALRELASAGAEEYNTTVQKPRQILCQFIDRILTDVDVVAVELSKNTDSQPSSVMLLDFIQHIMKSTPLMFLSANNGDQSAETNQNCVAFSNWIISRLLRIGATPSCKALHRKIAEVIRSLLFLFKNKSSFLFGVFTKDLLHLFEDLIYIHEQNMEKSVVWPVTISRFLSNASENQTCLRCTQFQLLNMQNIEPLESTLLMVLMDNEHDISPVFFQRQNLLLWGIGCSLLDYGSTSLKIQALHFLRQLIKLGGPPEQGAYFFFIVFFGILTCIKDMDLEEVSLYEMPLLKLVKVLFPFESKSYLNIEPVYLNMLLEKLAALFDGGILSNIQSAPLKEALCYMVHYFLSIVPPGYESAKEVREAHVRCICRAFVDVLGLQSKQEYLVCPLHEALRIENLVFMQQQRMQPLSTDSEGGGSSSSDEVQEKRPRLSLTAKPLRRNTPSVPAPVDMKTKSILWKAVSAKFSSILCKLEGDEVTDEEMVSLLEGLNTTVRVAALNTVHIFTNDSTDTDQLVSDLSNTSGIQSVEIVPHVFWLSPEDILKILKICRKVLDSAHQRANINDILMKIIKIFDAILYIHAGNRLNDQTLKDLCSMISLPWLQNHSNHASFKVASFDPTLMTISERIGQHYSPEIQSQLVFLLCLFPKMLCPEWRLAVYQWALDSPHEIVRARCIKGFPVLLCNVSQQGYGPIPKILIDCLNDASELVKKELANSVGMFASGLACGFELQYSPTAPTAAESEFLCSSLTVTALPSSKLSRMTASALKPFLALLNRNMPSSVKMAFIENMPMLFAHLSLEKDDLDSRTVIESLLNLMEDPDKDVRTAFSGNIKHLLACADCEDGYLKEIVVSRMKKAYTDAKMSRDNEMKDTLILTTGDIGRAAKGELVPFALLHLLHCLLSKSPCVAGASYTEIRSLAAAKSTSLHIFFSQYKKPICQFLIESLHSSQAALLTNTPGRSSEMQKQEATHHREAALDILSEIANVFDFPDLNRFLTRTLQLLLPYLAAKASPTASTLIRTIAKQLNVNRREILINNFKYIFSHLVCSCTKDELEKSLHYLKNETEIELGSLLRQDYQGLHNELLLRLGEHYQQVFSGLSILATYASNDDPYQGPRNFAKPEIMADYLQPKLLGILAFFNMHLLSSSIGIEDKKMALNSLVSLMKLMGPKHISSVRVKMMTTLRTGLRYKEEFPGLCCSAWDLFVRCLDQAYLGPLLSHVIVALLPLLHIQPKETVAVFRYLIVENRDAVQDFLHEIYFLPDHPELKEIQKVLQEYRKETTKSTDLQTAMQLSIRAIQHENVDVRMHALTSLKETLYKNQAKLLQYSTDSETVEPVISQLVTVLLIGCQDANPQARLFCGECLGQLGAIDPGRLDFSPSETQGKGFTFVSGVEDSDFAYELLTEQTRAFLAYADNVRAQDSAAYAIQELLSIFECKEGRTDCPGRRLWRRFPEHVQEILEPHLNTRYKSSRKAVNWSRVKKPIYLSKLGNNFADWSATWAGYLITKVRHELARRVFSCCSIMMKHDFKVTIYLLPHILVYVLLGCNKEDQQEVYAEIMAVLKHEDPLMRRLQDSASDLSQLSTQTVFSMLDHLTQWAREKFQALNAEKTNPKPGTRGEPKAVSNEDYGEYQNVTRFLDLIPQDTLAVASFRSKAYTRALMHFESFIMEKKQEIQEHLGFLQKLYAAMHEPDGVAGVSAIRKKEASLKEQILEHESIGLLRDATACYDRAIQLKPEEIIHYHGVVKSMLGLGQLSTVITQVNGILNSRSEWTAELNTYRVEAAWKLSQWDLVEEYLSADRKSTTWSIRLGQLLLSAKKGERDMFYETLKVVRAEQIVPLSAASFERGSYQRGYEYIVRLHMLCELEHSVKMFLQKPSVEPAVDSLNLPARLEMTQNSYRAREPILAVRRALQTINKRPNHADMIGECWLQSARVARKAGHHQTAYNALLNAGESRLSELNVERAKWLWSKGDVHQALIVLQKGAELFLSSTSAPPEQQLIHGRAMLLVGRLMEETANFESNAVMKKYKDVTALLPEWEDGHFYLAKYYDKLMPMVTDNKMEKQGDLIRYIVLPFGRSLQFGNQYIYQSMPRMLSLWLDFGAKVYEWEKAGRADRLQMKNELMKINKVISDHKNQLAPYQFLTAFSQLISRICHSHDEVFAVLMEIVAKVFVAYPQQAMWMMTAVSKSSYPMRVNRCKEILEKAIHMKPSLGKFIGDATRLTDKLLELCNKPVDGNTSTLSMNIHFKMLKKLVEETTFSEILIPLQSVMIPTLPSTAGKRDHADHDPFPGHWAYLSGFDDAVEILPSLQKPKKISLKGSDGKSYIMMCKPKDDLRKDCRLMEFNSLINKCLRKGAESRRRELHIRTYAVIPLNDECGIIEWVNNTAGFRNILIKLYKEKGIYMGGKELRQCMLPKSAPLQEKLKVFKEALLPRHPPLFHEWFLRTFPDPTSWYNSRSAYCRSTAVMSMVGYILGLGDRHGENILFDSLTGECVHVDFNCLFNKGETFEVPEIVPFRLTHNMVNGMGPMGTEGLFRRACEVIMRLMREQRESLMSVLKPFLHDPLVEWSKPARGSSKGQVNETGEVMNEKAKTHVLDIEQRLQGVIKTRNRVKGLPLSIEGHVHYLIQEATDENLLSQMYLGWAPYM

`C[C@@]1(CO)[C@H](O)CC[C@@]2(C)[C@H]1CC[C@H]1C[C@@H]3C[C@@]12CC[C@]3(O)CO` [aphidicolin]: the “phosphorylation of wildtype Xchk1 at Ser 344 (anti-S344-p immunoblot)” value in assay [1] (100 μg/mL aphidicolin and sperm nuclei, 90 minutes, interphase extract) was “phosphorylated at position 344”. Besides, the “phosphorylation of wildtype Xchk1 (phosphorylation-dependent shift in mobility)” value in assay [1] (35S-labeled Xchk1 in egg extracts, presence versus absence of aphidicolin) was “phosphorylated”. Besides, in assay [2], the “interaction of Xatr with DNA cellulose” value is “occurs in the presence or the absence”.
In the case of `Cn1c(=O)c2c(ncn2C)n(C)c1=O` [caffeine], the “kinase activity of ATR, sensitivity to caffeine” value in assay [3] is on record as “sensitive”. Moreover, the “half-maximal dose for inhibition of Xchk1 phosphorylation, compared with inhibition of Xatr kinase activity” value in assay [1] (egg extracts treated with aphidicolin, compared with FIG. 3D) is reported as “approximately the same half-maximal dose”. Besides, in assay [1] (egg extracts treated with aphidicolin, increasing concentrations of caffeine), the “phosphorylation of Xchk1 in response to unreplicated DNA” value is on record as “inhibited”. Besides, the “kinase activity of Xatr (phosphorylation of PHAS-I)” value in assay [4] is given as “significant decrease in phosphorylation of PHAS-I; also recorded: sensitive”. Moreover, in assay [5], the “kinase activity of ATM, sensitivity to caffeine” value is reported as “sensitive”. Moreover, the “kinase activity of TOR, sensitivity to caffeine” value in assay [6] is reported as “sensitive”.

Values taken from patent US7098007B2, “Cloning and functional assays of Xenopus ATR” (California Institute of Technology, priority 2001, dated 2006).
